Literature values as cited in patent publication US12357678B2, “Cancer stem cell targeted cancer vaccines” (priority 2012, dated 2025).

Key:
HLA-A2 = details: mutant vs wild type IL-13Rα2345-353
[1] = tested on: IL-13Ra2 positive, HLA-A2 positive glioma cells
T cells = details: mutant vs wild type IL-13Rα2345-353

ALPFGFILV (Amino acid residues 345-353 of IL-13 Receptor alpha mutation of W to A at position 345 and I to V at position 353) [IL-13Rα2345-353:1A9V, IL-13Rα2 345-353 with mutation of W to A at position 345 and I to V at position 353]
affinity for HLA-A2 relative to wild type peptide (HLA-A2): increased the affinity for HLA-A2 | killing of glioma cells by T cells stimulated with the peptide, relative to wild type ([1]; T cells stimulated with mutant vs wild type peptide): more effective at killing glioma cells | T cell response (immunogenicity) relative to wild type peptide (T cells): more robust T cell response

ELMLG EFLKL (ELMLGEFLKL; Amino acid residues 95-104 of Survivin with a methionine substitution at position 3) [SEQ ID NO:9, Survivin 95-104 with a methionine substitution at position 3]
activation of T cells cytotoxic to cancer cells (cancer cells): able to activate T cells that were cytotoxic to cancer cells | immunogenicity of survivin analog peptide (cancer cells): immunogenic

WLPFGFILI (Amino acid residues 345-353 of IL-13 Receptor alpha; listed as Homo sapiens) [IL-13Rα2345-353, Amino acid residues 345-353 of Interleukin-13 Receptor alpha]
lysis of glioma cells by CTL lines generated by stimulation of CD8+ cells with the peptide ([1]; IL-13Ra2 positive, HLA-A2 positive glioma cells, antigen-specific): efficiently lysed
